ChEMBL document CHEMBL1133110, “bis-Quinolinium cyclophanes: 8,14-diaza-1,7(1, 4)-diquinolinacyclotetradecaphane (UCL 1848), a highly potent and selective, nonpeptidic blocker of the apamin-sensitive Ca(2+)-activated K(+) channel” (J Med Chem, 2000)

Tests used:
[1] = Equieffective molar ratio is ratio of the concentration of the test compound and dequalinium that cause 50% inhibition of AHP
[2] = species on record: Rattus norvegicus; assay: tested for their ability to inhibit the after- hyperpolarization in cultured rat sympathetic neurons; assay type: functional, Sympathetic neuron
[3] = species on record: Rattus norvegicus; assay: tested for their ability to inhibit the after- hyperpolarization in cultured rat sympathetic neurons (omitting the comparison with dequalinium); assay type: functional; settings: Sympathetic neuron
[4] = species on record: Rattus norvegicus; assay: tested for their ability to inhibit the after- hyperpolarization (AHP) in cultured rat sympathetic neurons; assay type: functional; settings: Sympathetic neuron
[5] = Rattus norvegicus, Sympathetic neuron

| EMR [1] | IC50 [2, 5] [nM] | IC50 ([2]; sympathetic neuron) [nM] | IC50 [4] [nM] | SMILES | IC50 [3] [nM] |
| --- | --- | --- | --- | --- | --- |
| 0.1 | 60 |  |  | [I-].[I-].c1ccc2c(c1)c1cc[n+]2CCCCCC[n+]2ccc(c3ccccc32)NCCCCCCN1 |  |
| 0.09 | 40 |  |  | [I-].[I-].c1ccc2c(c1)c1cc[n+]2CCCC[n+]2ccc(c3ccccc32)NCCCCN1 |  |
| 0.43 | 190 |  |  | [I-].[I-].c1ccc2c(c1)c1cc[n+]2CCCCCCCC[n+]2ccc(c3ccccc32)NCCCCCCCCN1 |  |

The next lines start with the molecule.

| SMILES | EMR [1] | IC50 [2, 5] [nM] | IC50 ([2]; sympathetic neuron) [nM] | IC50 [4] [nM] | IC50 [3] [nM] |
| --- | --- | --- | --- | --- | --- |
| [I-].[I-].c1ccc2c(c1)c1cc[n+]2CCCCCCCCCC[n+]2ccc(c3ccccc32)NCCCCCCCCCCN1 | 0.44 | 260 |  |  |  |
| c1cc2cc(c1)C[n+]1ccc(c3ccccc31)NCc1ccc(cc1)CNc1cc[n+](c3ccccc13)C2 | 0.01 |  |  |  |  |
| [I-].[I-].c1ccc2c(c1)c1cc[n+]2CCCCC[n+]2ccc(c3ccccc32)NCCCCCN1 | 0.003 | 2 |  |  | 2.7 |
| [I-].[I-].c1ccc2c(c1)c1cc[n+]2CCC[n+]2ccc(c3ccccc32)NCCCN1 (stereo in doubt; form 1) | 0.27 |  | 130 |  |  |
| [I-].[I-].c1ccc2c(c1)c1cc[n+]2CCC[n+]2ccc(c3ccccc32)NCCCN1 (stereo in doubt; form 2) | 0.77 |  | 380 |  |  |
| Cc1cc(N)c2ccccc2[n+]1CCCCCCCCCC[n+]1c(C)cc(N)c2ccccc21.[Cl-].[Cl-] [DEQUALINIUM CHLORIDE] | 1 |  |  | 490 |  |
